Experimental data published in ChEMBL document CHEMBL4376803, “Recent Advances in the Exploration of Therapeutic Analogues of Gramicidin S, an Old but Still Potent Antimicrobial Peptide” (J Med Chem, 2019).
In brackets after ≈: the same amount, converted by molar mass. Blank lines part the entries; values can stand above or below the molecule they belong to. Numbered stars: 1 amine (or outer) side, 2 acyl side, 3 side chain; on linkers, the order of the positions; unused ones are H or OH. Square brackets hold non-standard residues; d marks the D form. Peptide text beside a SMILES is read from it. X1 = Cc1nc([C@@H](Cc2ccccc2)N[*:1])c(C(=O)[*:2])s1; Orn = NCCC[C@H](N)C(=O)O

How the values were obtained:
[1] = Haemolytic activity in human RBC after 4 hrs; assay type: ADME, cell-based, Erythrocyte; conditions: human red blood cells
[2] = Hemolytic activity in sheep erythrocytes; assay type: ADME, cell-based, Ovis aries, Erythrocyte
[3] = system: Klebsiella pneumoniae; experiment: Antibacterial activity against Klebsiella pneumonia K6 ATCC 700603 after overnight incubation by broth microdilution method; assay type: functional; conditions: 700603 K6
[4] = system: Escherichia coli; experiment: Antibacterial activity against Escherichia coli K-12 ATCC 29181 after overnight incubation by broth microdilution method; assay type: functional
[5] = system: Salmonella; experiment: Antibacterial activity against Salmonella after overnight incubation by broth microdilution method; assay type: functional
[6] = system: Staphylococcus aureus; experiment: Antibacterial activity against multidrug-resistant Staphylococcus aureus ATCC BAA-44 after overnight incubation by broth microdilution method; assay type: functional
[7] = system: Staphylococcus aureus; experiment: Antibacterial activity against vancomycin-resistant Staphylococcus aureus Mu50/ATCC 700699 after overnight incubation by broth microdilution method; assay type: functional
[8] = system: Staphylococcus epidermidis; experiment: Antibacterial activity against Staphylococcus epidermidis ATCC 27626 after overnight incubation by broth microdilution method; assay type: functional
[9] = Haemolytic activity in human RBC incubated for 1 hr; assay type: ADME, cell-based, Erythrocyte; conditions: human red blood cells
[10] = system: Escherichia coli; experiment: Antibacterial activity against Escherichia coli ATCC 8739 incubated for 48 hrs; assay type: functional; conditions: ATCC 8739, 48 h
[11] = system: Staphylococcus aureus; experiment: Antibacterial activity against Staphylococcus aureus ATCC 6538 incubated for 48 hrs; assay type: functional; conditions: ATCC 6538, 48 h
[12] = system: Pseudomonas aeruginosa; experiment: Antibacterial activity against Pseudomonas aeruginosa ATCC 9027 incubated for 48 hrs; assay type: functional; conditions: ATCC 9027, 48 h
[13] = system: Bacillus subtilis; experiment: Antibacterial activity against Bacillus subtilis CIP 52.65 incubated for 48 hrs; assay type: functional; conditions: CIP 52.65, 48 h
[14] = Haemolytic activity in human erythrocytes at 100 ug/ml after 30 mins relative to control; assay type: ADME, cell-based, Erythrocyte; conditions: read-out: Activity
[15] = system: Staphylococcus xylosus; experiment: Antibacterial activity against Staphylococcus xylosus; assay type: functional
[16] = system: Staphylococcus aureus; experiment: Antibacterial activity against Staphylococcus aureus; assay type: functional
[17] = system: Staphylococcus epidermidis; experiment: Antibacterial activity against Staphylococcus epidermidis; assay type: functional
[18] = system: Bacillus subtilis; experiment: Antibacterial activity against Bacillus subtilis NBRC 3513; assay type: functional
[19] = system: Escherichia coli; experiment: Antibacterial activity against Escherichia coli NBRC 12734; assay type: functional
[20] = system: Priestia megaterium; experiment: Antibacterial activity against Bacillus megaterium ATCC 19213; assay type: functional
[21] = system: Pseudomonas aeruginosa; experiment: Antibacterial activity against Pseudomonas aeruginosa NBRC 3080; assay type: functional
[22] = system: Staphylococcus aureus; experiment: Antibacterial activity against Staphylococcus aureus NBRC 12732; assay type: functional
[23] = system: Staphylococcus aureus; experiment: Antibacterial activity against Staphylococcus aureus ATCC 49975 after 16 to 20 hrs by broth microdilution method; assay type: functional

Structure (SMILES): NCCC[C@@H]1NC(=O)[C@H](C23CC4CC(CC(C4)C2)C3)NC(=O)[C@H](CCCN)NC(=O)[C@@H]2CCCN2C(=O)[C@@H](Cc2ccccc2)NC(=O)[C@H](CCCN)NC(=O)[C@H](C23CC4CC(CC(C4)C2)C3)NC(=O)[C@H](CCCN)NC(=O)[C@@H]2CCCN2C(=O)[C@@H](Cc2ccccc2)NC1=O
- HC50 at 4 h [1]: 107 µg/mL

Structure (SMILES): NCCC[C@@H]1NC(=O)[C@H](CCCN)NC(=O)[C@@H]2CCCN2C(=O)[C@@H](Cc2ccccc2)NC(=O)[C@H](CCCN)NC(=O)[C@H](CCCN)NC(=O)[C@H](CCCN)NC(=O)[C@@H]2CCCN2C(=O)[C@@H](Cc2ccccc2)NC(=O)[C@H](CCCN)NC1=O [listing 1 of 2 here]
- HC50 [2]: > 200 µg/mL

Structure (SMILES): CC(C)C[C@@H]1NC(=O)[C@H](CCCN)NC(=O)[C@H](C(C)C)NC(=O)[C@H](C)N(C)C(=O)[C@@H](Cc2ccccc2)NC(=O)[C@H](C)N(C)C(=O)[C@@H](CCCN)NC(=O)[C@H](C(C)C)NC(=O)[C@@H]2CCCN2C(=O)[C@@H](Cc2ccccc2)NC1=O
- MIC [3]: 7 µg/mL (≈ 6.36 µM)
- MIC [4]: 28 µg/mL (≈ 25.4 µM)
- MIC [5]: 28 µg/mL (≈ 25.4 µM)
- MIC [6]: 7 µg/mL (≈ 6.36 µM)
- MIC [7]: 3.5 µg/mL (≈ 3.18 µM)
- MIC [8]: 1.8 µg/mL (≈ 1.63 µM)
- HC50 at 1 h [9]: 69.2 µg/mL

- MIC [10]: 25 µg/mL (≈ 21.9 µM)
- MIC [11]: 4.68 µg/mL (≈ 4.1 µM)
- MIC [12]: > 50 µg/mL
- MIC [13]: 3.12 µg/mL (≈ 2.74 µM)
Structure (SMILES): Cc1nc2c(s1)C(=O)N[C@@H](C(C)C)C(=O)N[C@@H](CCCN)C(=O)N[C@@H](CC(C)C)C(=O)N[C@H](Cc1ccccc1)c1nc(C)sc1C(=O)N[C@@H](C(C)C)C(=O)N[C@@H](CCCN)C(=O)N[C@@H](CC(C)C)C(=O)N[C@@H]2Cc1ccccc1 (cyclo(L[X1]V[Orn]L[X1]V[Orn]))
- hemolysis at 0.5 h, 100 ug/ml [14]: 14%

- MIC [15]: 32 µg/mL (≈ 25.8 µM)
- MIC [16]: 16 µg/mL (≈ 12.9 µM)
- MIC [17]: 32 µg/mL (≈ 25.8 µM)
Structure (SMILES): CC(C)C[C@@H]1NC(=O)[C@H](CCCN)NC(=O)[C@H](C(C)C)NC(=O)[C@@H]2CCCN2C(=O)[C@@H](Cc2ccccc2)NC(=O)[C@H](CC(C)C)NC(=O)[C@H](CCCN)NC(=O)[C@H](C(C)C)NC(=O)C2=CC3=C4CCCC4=C4C=C(SC4(C)C3(C)S2)C(=O)NNC1=O (stereo partly drawn)

- MIC [18]: 12.5 µg/mL (≈ 10.7 µM)
- MIC [19]: > 100 µg/mL
- MIC [20]: 12.5 µg/mL (≈ 10.7 µM)
- MIC [21]: > 100 µg/mL
- MIC [22]: 50 µg/mL (≈ 42.6 µM)
Structure (SMILES): NCCC[C@@H]1NC(=O)[C@H](CCCN)NC(=O)[C@@H]2CCCN2C(=O)[C@@H](Cc2ccccc2)NC(=O)[C@H](CCCN)NC(=O)[C@H](CCCN)NC(=O)[C@H](CCCN)NC(=O)[C@@H]2CCCN2C(=O)[C@@H](Cc2ccccc2)NC(=O)[C@H](CCCN)NC1=O [listing 2 of 2 here]

- MIC [23]: 256 µg/mL (≈ 251 µM)
Structure (SMILES): CC(C)C[C@@H]1NC(=O)[C@@H](CCCN)NC(=O)[C@H](C(C)C)NC(=O)c2cccc(c2)/N=N/c2ccc(cc2)CNC(=O)[C@H](CCCN)NC(=O)[C@H](C(C)C)NC(=O)[C@@H]2CCCN2C(=O)[C@@H](Cc2ccccc2)NC1=O
